{
  "source": "patent US12486270B2",
  "about": "“Receptor tyrosine kinase inhibitors for treatment of protein kinase modulation-responsive disease or disorder” (THE UNITED STATES OF AMERICA, as represented by the …, priority 2019, dated 2025)",
  "key": {"SW620 cells": {"test_system": "SW620 cells", "assay": "Cleaved caspase-3 immunofluorescence microscopy in colorectal cancer cells (SW620)", "assay_type": "cell-based, human", "conditions": "72 hours", "description": "Cell viability was also measured by detection of cell-associated cleaved caspase-3. Cells were grown on gelatin-coated glass chamber slides, fixed in 4% paraformaldehyde, immune-stained with rabbit monoclonal antibody to cleaved Caspase 3 (1:100 Cell Signaling Technology) followed by Alexa Fluor 488-conjugated anti-rabbit IgG (1:400 Invitrogen) and mounted with Vectastain containing DAPI (Vector Laboratories). The slides were imaged through a Zeiss LSM780 confocal microscope. Image quantification (cleaved Caspase-3^+ nucleiltotal nuclei) was performed by CellProfiler software."}, "EphB4": {"target": "EphB4 (Homo sapiens (Human), UniProt P54760)", "sequence (P54760 16-987)": "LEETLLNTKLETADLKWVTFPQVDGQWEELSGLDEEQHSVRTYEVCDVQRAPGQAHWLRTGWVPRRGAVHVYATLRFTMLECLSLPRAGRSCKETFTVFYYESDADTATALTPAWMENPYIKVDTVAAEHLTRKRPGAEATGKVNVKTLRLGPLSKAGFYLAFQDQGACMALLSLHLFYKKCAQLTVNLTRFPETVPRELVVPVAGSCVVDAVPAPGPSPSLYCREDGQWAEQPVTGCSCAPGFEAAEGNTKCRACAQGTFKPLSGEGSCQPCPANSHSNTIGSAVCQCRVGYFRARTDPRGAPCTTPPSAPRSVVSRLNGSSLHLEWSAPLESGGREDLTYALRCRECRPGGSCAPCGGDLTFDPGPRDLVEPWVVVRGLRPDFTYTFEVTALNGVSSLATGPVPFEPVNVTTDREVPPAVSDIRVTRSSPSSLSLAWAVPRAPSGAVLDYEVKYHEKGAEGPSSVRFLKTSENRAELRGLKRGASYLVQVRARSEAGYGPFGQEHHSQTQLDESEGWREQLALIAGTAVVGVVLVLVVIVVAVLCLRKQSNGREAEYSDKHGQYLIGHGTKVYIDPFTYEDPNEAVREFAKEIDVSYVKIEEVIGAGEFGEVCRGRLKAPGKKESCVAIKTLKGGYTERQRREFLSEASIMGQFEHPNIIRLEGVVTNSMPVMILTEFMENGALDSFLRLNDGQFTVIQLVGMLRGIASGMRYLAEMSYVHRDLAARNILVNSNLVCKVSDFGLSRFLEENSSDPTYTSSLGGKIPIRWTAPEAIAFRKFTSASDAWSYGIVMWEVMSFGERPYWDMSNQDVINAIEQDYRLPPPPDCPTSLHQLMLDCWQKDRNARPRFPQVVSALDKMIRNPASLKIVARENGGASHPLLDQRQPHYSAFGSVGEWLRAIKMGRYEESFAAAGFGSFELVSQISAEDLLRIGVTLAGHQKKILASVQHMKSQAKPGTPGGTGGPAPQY", "assay": "Endogenous EphB4 tyrosine phosphorylation by ELISA in HT29 cell lysates", "assay_type": "cell-based", "conditions": "four hours treatment", "description": "(§1) ELISA. ELISA plates (ThermoFisher Scientific, Immulon 4HBX, 3855) were coated overnight at 4° C. with capture antibody 75 ng/well in PBS, and blocked with 5% BSA (Sigma-Aldrich, St. Louis, MO) in PBS for two hours at room temperature. Capture antibodies for EphB4 was goat polyclonal antibody (R&D Systems AF3038); for EphA2 was goat polyclonal antibody (R&D Systems AF3035); 10 ug of cell lysate was applied to the ELISA well for two hours at room temperature. The amount of tyrosine phosphorylation was measured with pTyr-HRP antibody (R&D Systems, HAM1676). The ELISA was developed with 3,3′,5,5′-Tetramethylbenzidine (TMB) (ThermoFisher Scientific, 7588927) for 15 minutes and stopped with 1M H2SO4 (Sigma-Aldrich, 258105). Absorbance at 450 nm was measured using POLARstar Optima plate reader (BMG Labtech, Cary, NC). All conditions were tested in duplicate. pEphB2 was measured by ELISA (Ray Biotech, PEL-EphB2-Y) according to the manufacturer's recommendations."}, "EphB2": {"target": "EphB2 (Homo sapiens (Human), UniProt P29323)", "sequence (P29323 19-1055)": "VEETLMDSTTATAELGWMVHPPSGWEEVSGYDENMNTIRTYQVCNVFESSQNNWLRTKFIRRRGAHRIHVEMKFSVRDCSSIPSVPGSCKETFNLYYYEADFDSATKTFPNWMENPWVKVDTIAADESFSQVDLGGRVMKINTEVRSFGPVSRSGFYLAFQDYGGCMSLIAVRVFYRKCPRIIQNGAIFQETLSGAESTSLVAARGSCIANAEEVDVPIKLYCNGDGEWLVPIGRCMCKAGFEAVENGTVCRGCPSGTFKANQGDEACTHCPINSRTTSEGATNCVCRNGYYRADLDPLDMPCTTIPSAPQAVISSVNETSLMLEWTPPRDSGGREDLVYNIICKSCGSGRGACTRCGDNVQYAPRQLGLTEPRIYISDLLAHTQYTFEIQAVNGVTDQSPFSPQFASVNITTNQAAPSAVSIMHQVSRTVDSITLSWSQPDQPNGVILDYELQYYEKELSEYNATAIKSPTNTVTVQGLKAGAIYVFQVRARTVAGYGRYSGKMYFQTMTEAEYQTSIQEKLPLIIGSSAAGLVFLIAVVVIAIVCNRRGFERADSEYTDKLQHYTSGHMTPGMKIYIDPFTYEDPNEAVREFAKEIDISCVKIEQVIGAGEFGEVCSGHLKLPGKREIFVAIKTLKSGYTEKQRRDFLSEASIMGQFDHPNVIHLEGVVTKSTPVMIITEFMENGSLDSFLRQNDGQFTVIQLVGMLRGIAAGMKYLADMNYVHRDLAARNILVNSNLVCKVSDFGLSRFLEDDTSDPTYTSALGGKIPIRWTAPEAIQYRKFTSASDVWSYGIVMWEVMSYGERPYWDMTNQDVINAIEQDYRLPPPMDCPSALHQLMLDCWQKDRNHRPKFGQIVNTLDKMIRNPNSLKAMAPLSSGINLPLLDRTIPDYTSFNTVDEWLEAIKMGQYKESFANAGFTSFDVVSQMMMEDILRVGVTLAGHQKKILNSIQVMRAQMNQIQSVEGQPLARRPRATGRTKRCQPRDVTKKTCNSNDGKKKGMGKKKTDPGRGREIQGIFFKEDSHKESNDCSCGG", "assay": "Endogenous EphB2 tyrosine phosphorylation by ELISA in Colo-205 cell lysates", "assay_type": "cell-based", "conditions": "four hours treatment", "description": "as §1"}, "LC3B": {"test_system": "LC3B", "assay": "LC3B autophagy marker by immunoblotting in HT-29 cells", "assay_type": "cell-based, human", "conditions": "72-hour incubation", "description": "Western blotting. Protein lysates were separated by SDS-PAGE and then transferred to a nitrocellulose membrane. After blocking, membranes were incubated overnight with antibodies to LC3 (rabbit Monoclonal antibody, Cell Signaling)."}, "EphA2 [1]": {"target": "T1, EphA2 (Homo sapiens (Human), UniProt P29317)", "T1 sequence (P29317 24-976)": "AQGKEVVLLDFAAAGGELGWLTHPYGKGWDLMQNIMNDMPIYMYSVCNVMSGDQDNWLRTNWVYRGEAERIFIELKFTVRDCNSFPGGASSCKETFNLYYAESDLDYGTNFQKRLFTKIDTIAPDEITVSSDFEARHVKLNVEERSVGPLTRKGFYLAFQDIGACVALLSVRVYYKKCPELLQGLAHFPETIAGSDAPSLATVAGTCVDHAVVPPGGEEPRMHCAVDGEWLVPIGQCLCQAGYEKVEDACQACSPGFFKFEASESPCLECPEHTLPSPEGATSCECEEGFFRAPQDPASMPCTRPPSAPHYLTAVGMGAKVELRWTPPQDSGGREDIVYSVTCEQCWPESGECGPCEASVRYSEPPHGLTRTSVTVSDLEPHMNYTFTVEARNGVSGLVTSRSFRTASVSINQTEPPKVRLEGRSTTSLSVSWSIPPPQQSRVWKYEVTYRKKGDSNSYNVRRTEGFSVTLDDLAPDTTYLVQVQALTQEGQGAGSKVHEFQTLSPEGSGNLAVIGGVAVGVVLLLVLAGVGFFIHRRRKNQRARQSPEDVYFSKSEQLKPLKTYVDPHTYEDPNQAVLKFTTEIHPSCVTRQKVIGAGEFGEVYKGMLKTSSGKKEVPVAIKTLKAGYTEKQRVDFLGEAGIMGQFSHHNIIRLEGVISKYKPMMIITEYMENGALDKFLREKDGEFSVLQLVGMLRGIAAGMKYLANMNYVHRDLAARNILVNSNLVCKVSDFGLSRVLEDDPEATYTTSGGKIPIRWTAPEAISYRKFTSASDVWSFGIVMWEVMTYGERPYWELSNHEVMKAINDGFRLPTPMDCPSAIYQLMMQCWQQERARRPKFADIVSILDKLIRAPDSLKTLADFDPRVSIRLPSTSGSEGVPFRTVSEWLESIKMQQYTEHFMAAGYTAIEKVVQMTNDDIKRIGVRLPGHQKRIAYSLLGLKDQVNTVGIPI", "assay": "Binding affinity to EphA2 by microscale thermophoresis (MST)", "conditions": "towards EphA2", "text": "The binding affinities of the compounds to EphA2 were investigated by microscale thermophoresis (MST) (M. Jerabek-Willemsen et al., J. Mol. Struct. 2014, 1077, 101-113)."}, "EphA2 [2]": {"target": "T1, EphA2", "assay": "Endogenous EphA2 tyrosine phosphorylation by ELISA in RKO cell lysates", "assay_type": "cell-based", "conditions": "four hours treatment", "description": "as §1"}, "[3]": {"test_system": "SW620 colorectal cancer cell", "assay": "Cell death by flow cytometry after DRAQ5/PI staining, colorectal cancer cells (SW620)", "assay_type": "cell-based, human", "conditions": "72 hours", "description": "Cell viability was measured by flow cytometry. Briefly, floating and adherent cells were collected by centrifugation, pelleted and suspended in PBS −/− (ThermoFisher, 10010-049) supplemented with 1% BSA (Sigma, A2153), 5 mM EDTA (Qualify Biological, 351-027), 10 mM glucose (Sigma, D9434) and 10 mM HEPES (Corning, 25-060-CI). After the cells (1×10^6 cells/mL) were stained with 25 μM DRAQ5 (BioLegend, San Diego, CA; 424101) for 60 minutes and 2 μg propidium iodide (ThermoFisher, P3566) for 15 minutes, analysis was performed on a FACSCantoll (BD Biosciences, Franklin Lakes, NJ; 338962). Results were analyzed by FloJo software (FlowJo LLC, Ashland, OR)."}, "SW620": {"test_system": "SW620", "assay": "Cell cycle analysis by flow cytometry in colorectal cancer cells (SW620)", "assay_type": "cell-based, human", "conditions": "72 hours; compared to control and NVP/NVP-Iso", "description": "Cell cycle was assessed by flow cytometry. Adherent cells were harvested, washed with PBS and fixed for 30 minutes in cold 70% ethanol at 4° C. Cells were washed twice with PBS, treated with 2.5 μg/mL RNaseA (ThermoFisher, 12091039) for 30 minutes at room temperature, and then stained with 10 μg propidium iodide for 15 minutes prior to analysis performed on FACS Canton (BD Biosciences; San Jose, CA) and cell cycled analyzed (FloJo software)."}},
  "data": [
    {"smiles": "Cc1ccc(C(=O)Nc2cccc(C(F)(F)F)c2)cc1Nc1nc(-c2cnccn2)nc2c1cnn2C", "note": "[@1, 4-Methyl-3-((1-methyl-6-(pyrazin-2-yl)-1H-pyrazolo[3,4-d]pyrimidin-4-yl)amino)-N-(3-(trifluoromethyl)phenyl)benzamide]", "values": [
      {"measurement": "cleaved caspase-3 detection in treated cells", "setting": "SW620 cells", "value": "only in a minority of cells"},
      {"measurement": "inhibitory activity for p-EphB4 compared to NVP", "setting": "EphB4", "value": "comparable or only slightly reduced inhibitory activity"},
      {"measurement": "inhibitory activity for p-EphB2 compared to NVP", "setting": "EphB2", "value": "comparable or only slightly reduced inhibitory activity"},
      {"measurement": "induction of autophagosome marker LC3B (immunoblotting)", "setting": "LC3B", "value": "failure"},
      {"measurement": "Kd", "setting": "EphA2 [1]", "value": 3, "unit": "nM"},
      {"measurement": "inhibitory activity for p-EphA2 compared to NVP", "setting": "EphA2 [2]", "value": "comparable or only slightly reduced inhibitory activity"},
      {"measurement": "colorectal cancer cell death by flow cytometry (DRAQ5/PI)", "setting": "[3]", "value": "no or minimal colorectal cancer cell death"},
      {"measurement": "distribution of cells within the cell cycle", "setting": "SW620", "value": "marked reduction of the proportion of cells within the G2M phase"}
    ]}
  ]
}
